The experiment has as its target T1, 3-phosphoinositide-dependent protein kinase 1 (Homo sapiens, UniProt O15530).
T1 sequence (O15530 whole entry): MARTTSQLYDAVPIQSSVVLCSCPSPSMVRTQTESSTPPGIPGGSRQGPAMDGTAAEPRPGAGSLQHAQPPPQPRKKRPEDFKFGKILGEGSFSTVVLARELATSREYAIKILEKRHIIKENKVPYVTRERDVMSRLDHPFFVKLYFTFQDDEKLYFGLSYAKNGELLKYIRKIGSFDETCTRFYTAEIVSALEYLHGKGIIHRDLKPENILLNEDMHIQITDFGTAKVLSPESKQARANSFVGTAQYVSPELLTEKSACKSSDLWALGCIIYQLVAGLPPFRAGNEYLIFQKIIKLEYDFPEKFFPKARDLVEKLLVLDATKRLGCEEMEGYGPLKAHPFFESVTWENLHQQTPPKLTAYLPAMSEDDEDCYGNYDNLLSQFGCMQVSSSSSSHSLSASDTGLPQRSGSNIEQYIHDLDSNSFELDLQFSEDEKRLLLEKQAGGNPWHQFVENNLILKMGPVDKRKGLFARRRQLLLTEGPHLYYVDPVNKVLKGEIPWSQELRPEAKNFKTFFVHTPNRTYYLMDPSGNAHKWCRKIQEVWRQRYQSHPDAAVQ
As to the kind of experiment: Proliferation Assay. As to the method:
Enzyme potency (PDK1 EC50)was determined using recombinant, purified full-length human PDK1 enzyme and AKT-Thr-308-tide as substrate.
For orientation: EC50 means the concentration at which the effect is half-maximal. A high value points to a less potent agent. The compound `Cc1[nH]nc2c1c(=O)n(CCCN)c1ccc(Cl)cc21` came in with an EC50 of 9 nM.

`CC(C)(C)c1nc2c3ccc(F)cc3c3c(=O)[nH]ccc3c2[nH]1` [Jak Inhibitor 1] registered an EC50 of 1 nM. In the case of `O=C(NCCCNc1nc(Nc2cccc(NC(=O)N3CCCC3)c2)ncc1I)c1cccs1` [N-{3-[(5-iodo-4-{[3-(thiophen-2-ylformamido)propyl]amino}pyrimidin-2-yl)amino]phenyl}pyrrolidine-1-carboxamide], the EC50 worked out at 26 nM. In the case of `CC(Nc1nc2c(C#CC3CC3)c[nH]c(=O)c2c2cc(-c3cn[nH]c3)ccc12)C(C)(C)C` (stereo unspecified) [PDK1 inhibitor, 2] it was 9 nM; in that of `COc1ccc(C#Cc2ccc3ncc4ncn(-c5ccc(CCN)cc5)c4c3c2)cc1` [PDK1 inhibitor, 4], 200 nM. On to `Cc1[nH]nc(-c2nc3cc4c[nH][nH]c4cc3n2)c1C(=O)NC1CCNCC1` [PDK1 inhibitor, 6], for which the EC50 came out at 12 nM.

Values taken from BindingDB's records for doi:10.1074/jbc.M110.156463 (Merck Research Laboratories, 2011).
